Measurements: patent publication US20250311727A1, “SUBSTITUTED 2-AMINOAZINES AND SALTS THEREOF, AND USE THEREOF AS HERBICIDAL ACTIVE SUBSTANCES” (BAYER AKTIENGESELLSCHAFT, priority 2022, published 2025)

Assays:
Format in all cases: in vivo
[1] = test system: Echinochloa crus-galli; assay: Post-emergence herbicidal efficacy at 80 g/ha, ECHCG; conditions: rated visually after about 3 weeks vs untreated controls, 100% = plants have died
Description: (§1) Unwanted plants/weeds: • ABUTH: Abutilon theophrasti • ALOMY: Alopecurus myosuroides • AMARE: Amaranthus retroflexus • DIGSA: Digitaria sanguinalis • ECHCG: Echinochloa crus-galli • KCHSC: Kochia scoparia • LOLRI: Lolium rigidum • MATIN: Matricaria inodora • POAAN: Poa annua • POLCO: Polygonum convolvulus • SETVI: Setaria viridis • STEME: Stellaria media • VERPE: Veronica persica • VIOTR: Viola tricolor A. Post-Emergence Herbicidal Efficacy at 320 g/ha
(§2) Seeds of monocotyledonous and dicotyledonous weeds and crop plants were placed in sandy loam in plastic or organic planting pots, covered with soil and cultivated in a greenhouse under controlled growth conditions. 2 to 3 weeks after sowing, the test plants were treated at the one-leaf stage. The compounds of the invention, formulated in the form of wettable powders (WP) or as emulsion concentrates (EC), were then sprayed onto the green parts of the plants as aqueous suspension or emulsion with addition of 0.5% additive at a water application rate of 600 l/ha (converted). After the test plants had been kept in the greenhouse under optimum growth conditions for about 3 weeks, the activity of the preparations was rated visually in comparison to untreated controls. For example, 100% activity=the plants have died, 0% activity=like control plants.
(§3) Tables B1 to B11 below show the effects of selected compounds of the general formula (I) according to Table 1 on various harmful plants and an application rate corresponding to 80 g/ha, which were obtained by the experimental procedure mentioned above.

[2] = test system: Echinochloa crus-galli; assay: Pre-emergence herbicide efficacy at 80 g/ha, ECHCG; conditions: scored visually after about 3 weeks vs untreated controls, 100% = plants have died
Description: as §1
(§4) Seeds of monocotyledonous and dicotyledonous weed plants and crop plants were placed in plastic or organic planting pots and covered with soil. The compounds of the invention, formulated in the form of wettable powders (WP) or as emulsion concentrates (EC), were then applied to the surface of the covering soil as aqueous suspension or emulsion with addition of 0.5% additive at a water application rate equivalent to 600 l/ha. After the treatment, the pots were placed in a greenhouse and kept under good growth conditions for the test plants. After about 3 weeks, the efficacy of the preparations was scored visually in comparison with untreated controls as percentages. For example, 100% activity=the plants have died, 0% activity=like control plants.
(§5) Tables D1 to D12 below show the effects of selected compounds of the general formula (I) according to Table 1 on various harmful plants and an application rate corresponding to 80 g/ha, which were obtained by the experimental procedure mentioned above.

[3] = test system: Abutilon theophrasti; assay: Post-emergence herbicidal efficacy at 80 g/ha, ABUTH; conditions: rated visually after about 3 weeks vs untreated controls, 100% = plants have died
Description: as §1, §2, §3

[4] = test system: Digitaria sanguinalis; assay: Pre-emergence herbicide efficacy at 80 g/ha, DIGSA; conditions: scored visually after about 3 weeks vs untreated controls, 100% = plants have died
In short: (§6)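 Visual scoring after about 3 weeks in the greenhouse, expressed as percent activity against untreated controls, where 100% means dead plants and 0% means no difference. Treatment was applied pre-emergence to the covering soil over sown seeds, as WP or EC in water with 0.5% additive, 600 l/ha.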

[5] = test system: Amaranthus retroflexus; assay: Pre-emergence herbicide efficacy at 80 g/ha, AMARE; conditions: scored visually after about 3 weeks vs untreated controls, 100% = plants have died
In short: as §6

[6] = test system: Viola tricolor; assay: Post-emergence herbicidal efficacy at 80 g/ha, VIOTR; conditions: rated visually after about 3 weeks vs untreated controls, 100% = plants have died
In short: (§7)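 Greenhouse post-emergence spray, one-leaf stage (2–3 wk after sowing, sandy loam). Cpd as WP/EC, aqueous + 0.5% additive, 600 l/ha water. Visual rating ~3 wk post-treatment vs untreated; 0% = as control, 100% = plants dead.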

[7] = test system: Polygonum convolvulus; assay: Pre-emergence herbicide efficacy at 80 g/ha, POLCO; conditions: scored visually after about 3 weeks vs untreated controls, 100% = plants have died
In short: as §6

[8] = test system: Veronica persica; assay: Pre-emergence herbicide efficacy at 80 g/ha, VERPE
In short: as §6

[9] = test system: Setaria viridis; assay: Pre-emergence herbicide efficacy at 80 g/ha, SETVI
In short: as §6

[10] = test system: Abutilon theophrasti; assay: Pre-emergence herbicide efficacy at 80 g/ha, ABUTH; conditions: scored visually after about 3 weeks vs untreated controls, 100% = plants have died
Description: as §1, §4, §5

[11] = test system: Setaria viridis; assay: Post-emergence herbicidal efficacy at 80 g/ha, SETVI; conditions: rated visually after about 3 weeks vs untreated controls, 100% = plants have died
Description: as §1, §2, §3

[12] = test system: Digitaria sanguinalis; assay: Post-emergence herbicidal efficacy at 80 g/ha, DIGSA; conditions: rated visually after about 3 weeks vs untreated controls, 100% = plants have died
Description: as §1, §2, §3

[13] = test system: Viola tricolor; assay: Pre-emergence herbicide efficacy at 80 g/ha, VIOTR
In short: as §6

[14] = test system: Matricaria inodora; assay: Pre-emergence herbicide efficacy at 80 g/ha, MATIN; conditions: scored visually after about 3 weeks vs untreated controls, 100% = plants have died
Description: as §1, §4, §5

[15] = test system: Lolium rigidum; assay: Pre-emergence herbicide efficacy at 80 g/ha, LOLRI; conditions: scored visually after about 3 weeks vs untreated controls, 100% = plants have died
Description: as §1
as §4, with “control plants. […]” for “control plants.”

[16] = test system: Polygonum convolvulus; assay: Post-emergence herbicidal efficacy at 80 g/ha, POLCO; conditions: rated visually after about 3 weeks vs untreated controls, 100% = plants have died
Description: as §1
as §2, with “plants. […]” for “plants.”

[17] = test system: Kochia scoparia; assay: Post-emergence herbicidal efficacy at 80 g/ha, KCHSC; conditions: rated visually after about 3 weeks vs untreated controls, 100% = plants have died
In short: as §7

[18] = test system: Alopecurus myosuroides; assay: Pre-emergence herbicide efficacy at 80 g/ha, ALOMY; conditions: scored visually after about 3 weeks vs untreated controls, 100% = plants have died
Description: as §1, §4, §5

[19] = test system: Veronica persica; assay: Post-emergence herbicidal efficacy at 80 g/ha, VERPE; conditions: rated visually after about 3 weeks vs untreated controls, 100% = plants have died
In short: as §7

[20] = test system: PHBPU; assay: Post-emergence herbicidal efficacy at 80 g/ha, PHBPU; conditions: rated visually after about 3 weeks vs untreated controls, 100% = plants have died
Protocol: as §2, with “plants. Tables B1 to B11 below show the effects of selected compounds of the general formula (I) according to Table 1 on various harmful plants and an application rate corresponding to 80 g/ha, which were obtained by the experimental procedure mentioned above.” for “plants.”

[21] = test system: Kochia scoparia; assay: Pre-emergence herbicide efficacy at 80 g/ha, KCHSC; conditions: scored visually after about 3 weeks vs untreated controls, 100% = plants have died
In short: as §6

[22] = test system: Amaranthus retroflexus; assay: Post-emergence herbicidal efficacy at 80 g/ha, AMARE; conditions: rated visually after about 3 weeks vs untreated controls, 100% = plants have died
In short: as §7

## FC(F)c1cc(-c2c(Cl)cccc2Nc2ncc(Cl)cn2)on1 [Example 1-61]
[1]
  Post-emergence efficacy at 80 g/ha against ECHCG in %: 100%
[2]
  Pre-emergence efficacy at 80 g/ha against ECHCG in %: 100%
[3]
  Post-emergence efficacy at 80 g/ha against ABUTH in %: 100%
[4]
  Pre-emergence efficacy at 80 g/ha against DIGSA in %: 100%
[5]
  Pre-emergence efficacy at 80 g/ha against AMARE in %: 100%
[6]
  Post-emergence efficacy at 80 g/ha against VIOTR in %: 100%
[7]
  Pre-emergence efficacy at 80 g/ha against POLCO in %: 80%
[8]
  Pre-emergence efficacy against VERPE: 90%
[9]
  Pre-emergence efficacy against SETVI: 100%
[10]
  Pre-emergence efficacy at 80 g/ha against ABUTH in %: 90%
[11]
  Post-emergence efficacy at 80 g/ha against SETVI in %: 100%
[12]
  Post-emergence efficacy at 80 g/ha against DIGSA in %: 100%
[13]
  Pre-emergence efficacy against VIOTR: 100%
[14]
  Pre-emergence efficacy at 80 g/ha against MATIN in %: 100%
[15]
  Pre-emergence efficacy at 80 g/ha against LOLRI in %: 90%
[16]
  Post-emergence efficacy at 80 g/ha against POLCO in %: 100%
[17]
  Post-emergence efficacy at 80 g/ha against KCHSC in %: 100%
[18]
  Pre-emergence efficacy at 80 g/ha against ALOMY in %: 90%
[19]
  Post-emergence efficacy at 80 g/ha against VERPE in %: 100%
[20]
  Post-emergence efficacy at 80 g/ha against PHBPU in %: 100%
[21]
  Pre-emergence efficacy at 80 g/ha against KCHSC in %: 100%
[22]
  Post-emergence efficacy at 80 g/ha against AMARE in %: 100%

## Fc1cnc(Nc2cccc(Cl)c2-c2cc(C(F)F)no2)nc1 [Example 1-62]
[1]
  Post-emergence efficacy at 80 g/ha against ECHCG in %: 80%
[2]
  Pre-emergence efficacy at 80 g/ha against ECHCG in %: 100%
[3]
  Post-emergence efficacy at 80 g/ha against ABUTH in %: 90%
[4]
  Pre-emergence efficacy at 80 g/ha against DIGSA in %: 100%
[5]
  Pre-emergence efficacy at 80 g/ha against AMARE in %: 100%
[6]
  Post-emergence efficacy at 80 g/ha against VIOTR in %: 100%
[7]
  Pre-emergence efficacy at 80 g/ha against POLCO in %: 80%
[8]
  Pre-emergence efficacy against VERPE: 100%
[9]
  Pre-emergence efficacy against SETVI: 100%
[10]
  Pre-emergence efficacy at 80 g/ha against ABUTH in %: 100%
[11]
  Post-emergence efficacy at 80 g/ha against SETVI in %: 100%
[12]
  Post-emergence efficacy at 80 g/ha against DIGSA in %: 80%
[13]
  Pre-emergence efficacy against VIOTR: 100%
[15]
  Pre-emergence efficacy at 80 g/ha against LOLRI in %: 100%
[17]
  Post-emergence efficacy at 80 g/ha against KCHSC in %: 100%
[18]
  Pre-emergence efficacy at 80 g/ha against ALOMY in %: 100%
[19]
  Post-emergence efficacy at 80 g/ha against VERPE in %: 100%
[21]
  Pre-emergence efficacy at 80 g/ha against KCHSC in %: 100%
[22]
  Post-emergence efficacy at 80 g/ha against AMARE in %: 100%
